Our source for the IC50 values is patent US12023319B2, “Carboxylic acid aromatic amides” (priority 2016, dated 2024).

Test [1] deals with Bradykinin B1 agonist-induced secretion of IL-6. The test is described as follows: Bradykinin B1 agonist-induced secretion of IL-6 in human IMR-90 cells. The following applies: 30 min compound, then 0.1 μM Lys-[Des-Arg9]Bradykinin and 0.1 μM Sar-[D-Phe8]-des-Arg9-Bradykinin for 5 hours. Format: cell-based. An excerpt:
2. Inhibitory Activity on Bradykinin B1 Agonist-Induced Secretion of IL-6 and IL-8 in Human IMR-90 Cells
The effect of the Compound Examples on secretion of the cytokine IL-6 and IL-8 has been investigated in the human foetal lung fibroblast IMR-90 cell line. Here the induction of the cytokine secretion was induced by the Bradykinin B1 agonists Lys-[Des-Arg9]Bradykinin (CAS 71800-36-7, Tocris Bioscience) and Sar-[D-Phe8]-des-Arg9-Bradykinin (CAS 126959-88-4, Tocris Bioscience) leading to the activation of the Bradykinin B1-driven signalling pathway. The inhibitory activity of the tested Compound Examples on Bradykinin B1 agonist-induced secretion of IL-6 and IL-8 is indicative for the compounds' prominent anti-inflammatory mode of action in kinin driven inflammation.
IMR-90 cells were cultured in Eagle's Minimum Essential Medium (EMEM) containing 2 mM L-glutamine, 1 g/L glucose, 1.5 g/L NaHCO3, 1 mM sodium pyruvate and non-essential amino acids (ATCC, 30-2003™) supplemented with 10% FBS (Biochrom, S0615) and 50 U/mL Penicillin, 50 μg/mL Streptomycin (PAA, P11-010). The assay was performed in EMEM and a cell density of […] IMR-90 cells/96-well. The Compound Examples have been serial diluted in 100% DMSO and evaluated at 8 different concentrations within the range of 3 nM and 10 μM and a final DMSO concentration of 0.4%. The IMR-90 cells have been incubated with the respective concentration of the compound for 30 min. The enhanced secretion of IL-6 and IL-8 was induced by the stimulation of these cells with 0.1 μM Lys-[Des-Arg9]Bradykinin (Tocris, catalogue no. 3225) and 0.1 μM Sar-[D-Phe8]-des-Arg9-Bradykinin (Tocris, catalogue no. 3230) for 5 hours at 37° C. and 5% CO2. Further, cells have been treated with Lys-[Des-Arg9]Bradykinin and Sar[D-Phe8]-des-Arg9-Bradykinin as neutral control and with 0.1% DMSO as inhibitor control. The amount of IL-6 and IL-8 in the supernatant was determined using the Human ProInflammatory Panel II (4-Plex) (MSD, K15025B) according to manufacturer's instruction. Briefly, supernatants were added onto assay plates and incubated at room temperature for 1-2 h with vigorous shaking at 600 rpm. Detection antibodies were then added onto the supernatants and incubated at room temperature for an additional 1-2 h with vigorous shaking at 600 rpm. Plates were washed three times with phosphate-buffered saline (PBS; 137 mM NaCl, 2.7 mM KC1, 6.5 mM Na2HP04, 1.7 mM KH2P04) containing 0.05% Tween-20 (Bio-Rad, 161-0781) and electrochemiluminescence detected using the MSD Sector Imager 6000 plate reader. The cell viability was measured using the CellTiter-Glo Luminescent Assay (Promega, G7571) following the manufacturers protocol. Briefly, the CellTiter-Glo Reagent was diluted with PBS (1:1) and added directly to cells. After incubation and shaking for 10 minutes luminescent signal was measured which is proportional to the amount of ATP present.
The effect of the compound on the amount of secreted cytokine has been calculated as 100/(measured cytokine concentration of neutral control-measured cytokine concentration of inhibitor control)*(measured cytokine concentration of compound dose-measured cytokine concentration of inhibitor control). IC50 values are determined using 4-parameter-fit.
The Compound Examples were tested in triplicates per plate and the inhibitory activity was determined as the relation between neutral and inhibitor control in percent. IC50 values were calculated using the 4-parameter logistic model.

The target in test [2] is T1, native human Bradykinin B1 receptor (Homo sapiens, UniProt P46663).
T1 construct: which express native human Bradykinin B1 receptor after induction with human IL-1beta; Coriell Institute; host or cells: IMR-90 human foetal lung fibroblasts, induced with human IL-1beta
T1 sequence (P46663 1-353): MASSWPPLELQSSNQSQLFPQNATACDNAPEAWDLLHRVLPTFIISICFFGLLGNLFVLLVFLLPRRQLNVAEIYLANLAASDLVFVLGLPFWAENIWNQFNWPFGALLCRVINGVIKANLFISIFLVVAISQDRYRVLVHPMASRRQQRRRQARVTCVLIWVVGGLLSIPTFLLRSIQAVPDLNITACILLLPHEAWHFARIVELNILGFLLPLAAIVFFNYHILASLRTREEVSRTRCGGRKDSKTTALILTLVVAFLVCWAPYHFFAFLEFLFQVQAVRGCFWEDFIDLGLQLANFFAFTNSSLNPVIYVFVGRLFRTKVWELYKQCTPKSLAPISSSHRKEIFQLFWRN
Briefly: Calcium flux assay (FLIPR) with IMR-90 human fibroblasts expressing Bradykinin B1 receptor after IL-1beta induction (hB1 IMR-90). Format: cell-based. To be noted: IMR-90 human fibroblasts after IL-1beta induction, read-out: hB1 IMR90 IC50. In a few lines:
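IMR-90 foetal lung fibroblasts induced with 0.35 ng/mL IL-1beta for 3 h to express native B1 receptor, then loaded with 2.5 μM Fluo-4/AM plus 2.5 mM probenecid for 2 h at 37 °C. Calcium flux read by FLIPR; compounds at 8 concentrations in triplicate, full inhibition defined by 20 μM Lys-(Des-Arg-Leu)-Bradykinin; IC50 derived.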
A general note: Calcium assays in cells follow changes in intracellular calcium, usually with a dye or a luminescent sensor.

As for `O=C(O)c1cc(NC(=O)C2(c3ccc(C(F)(F)F)cc3F)CC2)ccc1-c1cc2ccccc2s1` [Example 1, 2-(1-Benzothiophen-2-yl)-5-[({1-[2-fluoro-4-(trifluoromethyl)phenyl]cyclopropyl}carbonyl)amino]benzoic acid], the IC50 – broadly, the concentration needed to halve the response being measured – worked out at 149 nM in test [1] and 72 nM in test [2].

Regarding `CCC(F)(F)c1ccc(-c2ccc(NC(=O)C3(c4ccc(C(F)(F)F)cc4F)CC3)cc2C(=O)O)cn1` [Example 2, 2-[6-(1,1-Difluoropropyl)pyridin-3-yl]-5-[({1-[2-fluoro-4-(trifluoromethyl)-phenyl]cyclopropyl}carbonyl)amino]benzoic acid], the IC50 in test [1] was found to be 113 nM; in test [2] it was 44 nM.

As for `O=C(O)c1cc(NC(=O)C2(c3ccc(C(F)(F)F)cc3F)CC2)ccc1-c1cnn(C2CCC2)c1` [Example 3, 2-(1-Cyclobutyl-1H-pyrazol-4-yl)-5-[({1-[2-fluoro-4-(trifluoromethyl)phenyl]cyclopropyl}carbonyl)amino]benzoic acid], the values for the IC50 in test [1] and in test [2] were 47 nM and 12 nM, respectively.

Take `O=C(O)c1cc(NC(=O)C2(c3ccc(OC(F)(F)F)cc3F)CC2)ccc1-c1ccc(C(F)F)nc1` [Example 5, 2-[6-(Difluoromethyl)pyridin-3-yl]-5-[({1-[2-fluoro-4-(trifluoromethoxy)phenyl]cyclopropyl}carbonyl)amino]benzoic acid]: the IC50 in test [1] came to 290 nM; in test [2], 2700 nM.

Regarding `O=C(O)c1cc(NC(=O)C2(c3ccc(C(F)(F)F)cc3F)CC2)ccc1-c1ccc(C(F)(F)F)nc1` [Example 6, 5-[({1-[2-Fluoro-4-(trifluoromethyl)phenyl]cyclopropyl}carbonyl)amino]-2-[6-(trifluoromethyl)pyridin-3-yl]benzoic acid], the IC50 in test [1] turned out to be 443 nM; in test [2], 550 nM.

For the compound `O=C(O)c1cc(NC(=O)C2(c3ccc(C(F)(F)F)cc3F)CC2)cc(F)c1-c1ccc(C(F)(F)F)nc1` [Example 29, 3-Fluoro-5-[({1-[2-fluoro-4-(trifluoromethyl)phenyl]cyclopropyl}carbonyl)amino]-2-[6-(trifluoromethyl)pyridin-3-yl]benzoic acid], the values for the IC50 in test [1] and in test [2] were 600 nM and 21 nM, respectively.

With `O=C(O)c1cc(NC(=O)C2(c3ccc(C(F)(F)F)cc3F)CC2)cc(F)c1-c1cnn(C2CCC2)c1` [Example 42, 2-(1-Cyclobutyl-1H-pyrazol-4-yl)-3-fluoro-5-[({1-[2-fluoro-4-(trifluoromethyl)phenyl]cyclopropyl}carbonyl)amino]benzoic acid], the results for the IC50 in test [1] and in test [2] were 70 nM and 4.1 nM, respectively.
